From PMC6385889 (Chemical biology & drug design, 2011)
Where “and” joins values, the source holds several entries; their conditions need not be identical. Identical values can stand only once. Like-named read-outs stand apart in the source and are kept apart here.

How the values were obtained:
[1] = test system: HIV-1 containing N155H integrase; format: cell-based; details: cells infected with mutant vector
HOS cells = assay: Cellular cytotoxicity; format: cell-based, human; details: HOS cells
Cellular cytotoxicity = format: cell-based, human; details: human, HOS osteosarcoma cells
HIV-1 integrase Y143R = assay: In vitro ST assay, Y143R mutant IN; format: biochemical; details: mutant enzyme vs WT enzyme; pre-cleaved DNA, Mg2+
[2] = test system: HIV-1 containing wild-type (WT) integrase; assay: Antiviral assay, cells infected with HIV-1 vector containing WT integrase; format: cell-based
[3] = test system: HIV-1 containing Y143R integrase; format: cell-based; details: cells infected with mutant vector
[4] = test system: HIV-1 integrase G140S/Q148H; details: mutant enzyme vs WT enzyme; pre-cleaved DNA, Mg2+
HIV-1 integrase N155H = assay: In vitro ST assay, N155H mutant IN; format: biochemical
[5] = test system: HIV-1 containing G140S/Q148H integrase; format: cell-based; details: cells infected with mutant vector
[6] = Human immunodeficiency virus 1, read-out: EC50 (WT)

Row | SMILES | Fold-loss of antiviral potency relative to virus containing WT enzyme, N155H [1] | Cytotoxicity fold lower than catechol-containing analogue 3 (HOS cells; ratio of CC50 values) | CC50 at 48 h (Cellular cytotoxicity) | Fold-loss of potency relative to WT, Y143R (ST, in vitro) (HIV-1 integrase Y143R) | EC50 [2, 6] | Fold-loss of antiviral potency relative to virus containing WT enzyme, Y143R [3] | Fold-loss of potency relative to WT, G140S/Q148H (ST, in vitro) [4] | Fold less sensitive than raltegravir to N155H mutation (in vitro) (HIV-1 integrase N155H; comparison of fold-losses, enzyme assay) | Fold-loss of potency relative to WT, N155H (ST, in vitro) (HIV-1 integrase N155H; mutant enzyme vs WT enzyme, pre-cleaved DNA, Mg2+) | Fold-loss of antiviral potency relative to virus containing WT enzyme, G140S/Q148H [5] | CC50 (HOS cells; 48 hrs) | EC50 ([2]; read-out: EC50 (WT), HIV-1 vector with WT integrase) | Fold-loss of antiviral potency relative to virus containing WT enzyme, G140S/Q148H ([5]; listed as MK-0536)
1 | COC(=O)CCc1c2c(c(O)c(=O)n1C(C)C)C(=O)N(Cc1ccc(F)c(Cl)c1)C2=O [5e, Methyl 3-(2-(3-chloro-4-fluorobenzyl)-7-hydroxy-5-isopropyl-1,3,6-trioxo-2,3,5,6-tetrahydro-1H-pyrrolo[3,4-c]pyridin-4-yl)propanoate] | 3 fold and 3x fold | approximately 70 fold | 392 ± 66 µM | 2 fold and 2x fold | 9.2 ± 1.9 µM | 2 fold and 2x fold | 12 fold and 12x fold | approximately 2 fold | 4 fold and 4x fold | 2 fold and 2x fold |  |  | 
2 | Cc1nnc(C(=O)NC(C)(C)c2nc(C(=O)NCc3ccc(F)cc3)c(O)c(=O)n2C)o1 [compound 1, raltegravir, reference compound] |  |  | > 100 µM |  | 0.004 ± 0.002 µM |  |  |  |  |  |  |  | 
3 | CC(C)n1c(C(=O)N(C)C)c2c(c(O)c1=O)C(=O)N(Cc1ccc(F)c(Cl)c1)CC2 [compound 2, MK-0536, reference compound] | 1x fold |  |  |  |  | 0.4x fold |  |  |  | 5x fold | > 100 µM | 0.017 ± 0.004 µM | 5 fold
